Reference: US7078223B2, “Process for the preparation of pseudomonic acid a antibiotic by microbiological method” (TEVA Gyógyszergyár Zártkörüen Müködö Részvénytársaság, priority 1999, dated 2006)

Experiments:
[1] = biological target: isoleucine-tRNA synthase enzyme (Escherichia coli, UniProt P00956); details: affects the peptide synthesis of pathogen bacteria; cited from earlier work
[2] = both for humans and animals; cited from earlier work
[3] = system: Bacillus subtilis ATCC 6633; assay: agar diffusion microbial method; assay type: cell-based; details: beef-extract-peptone-glucose agar, pH 6.5, Bacillus subtilis ATCC 6633
Protocol: The antibacterial activity of the pseudomonic acid antibiotic complex is determined by agar diffusion microbial method. The medium is a beef-extract-peptone-glucose-containing agar, its pH is 6.5 and the test organism is Bacillus subtilis ATCC 6633.

isoleucine-tRNA synthase enzyme, sequence (P00956 whole entry): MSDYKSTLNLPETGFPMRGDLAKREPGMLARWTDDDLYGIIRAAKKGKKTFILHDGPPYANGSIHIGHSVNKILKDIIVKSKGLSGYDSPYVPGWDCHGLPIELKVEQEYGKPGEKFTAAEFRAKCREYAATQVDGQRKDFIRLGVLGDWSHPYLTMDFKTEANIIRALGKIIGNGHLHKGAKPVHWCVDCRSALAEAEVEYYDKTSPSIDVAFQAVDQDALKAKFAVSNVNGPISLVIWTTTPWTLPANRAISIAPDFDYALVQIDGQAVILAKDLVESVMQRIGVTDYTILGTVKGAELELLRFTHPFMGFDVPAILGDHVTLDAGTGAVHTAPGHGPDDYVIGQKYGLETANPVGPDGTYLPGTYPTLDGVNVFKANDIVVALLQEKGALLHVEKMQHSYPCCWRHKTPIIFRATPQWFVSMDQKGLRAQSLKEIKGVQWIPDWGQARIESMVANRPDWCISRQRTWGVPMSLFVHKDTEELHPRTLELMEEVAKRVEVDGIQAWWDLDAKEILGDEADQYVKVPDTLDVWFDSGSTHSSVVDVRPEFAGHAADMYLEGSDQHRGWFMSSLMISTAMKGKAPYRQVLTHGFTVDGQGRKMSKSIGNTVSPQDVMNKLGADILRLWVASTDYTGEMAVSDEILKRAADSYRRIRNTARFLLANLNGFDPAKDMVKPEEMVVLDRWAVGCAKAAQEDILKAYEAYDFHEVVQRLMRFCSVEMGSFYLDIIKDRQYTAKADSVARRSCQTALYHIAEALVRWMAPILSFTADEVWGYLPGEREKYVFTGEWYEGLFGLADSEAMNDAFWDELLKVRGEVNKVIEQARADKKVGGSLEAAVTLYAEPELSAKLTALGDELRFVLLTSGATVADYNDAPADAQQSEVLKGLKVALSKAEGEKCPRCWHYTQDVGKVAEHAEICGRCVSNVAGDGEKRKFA

Structure (SMILES) | inhibition of isoleucine-tRNA synthase enzyme [1] | toxicity [2] | specific activity against the test-microorganism relating to the component A [3]
C/C(=C\C(=O)OCCCCCCCCC(=O)O)CC1OC[C@H](C[C@@H]2O[C@H]2[C@@H](C)[C@H](C)O)[C@@H](O)[C@H]1O (stereo partly drawn) [Pseudomonic acid A, 9-{4[5S(2S,3S-epoxy-5S-hydroxy-4S-methylhexyl)-3R,4R-dihydroxy-tetrahydropyran-2S-yl]-3-methylbut-2(E)-enoyloxy}nonanoic acid] | inhibiting | very low toxicity | 
C/C(=C\C(=O)OCCCCCCCCC(=O)O)CC1OC[C@](O)(C[C@@H]2O[C@H]2[C@@H](C)[C@H](C)O)[C@@H](O)[C@H]1O (stereo partly drawn) [component B, pseudomonic acid B] |  |  | considerably weaker
